Experimental data published in ChEMBL document CHEMBL1201862, “PubChem BioAssay data set” (2004).
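Following 48 hours of exposure in 96-well plates, responses at five concentrations were used to interpolate endpoints linearly. GI50: concentration for 50% inhibition of growth.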 Calls of active or inactive are those of the source. Rule as the data show it: active = GI50 up to about 1.1 µM and inactive = higher.

How the values were obtained:
Test in all cases: inhibition of tumour cell growth, NCI panel, 48 h
SK-MEL-5 = test system: SK-MEL-5
UACC-62 = test system: UACC-62
DU-145 = test system: DU-145
SK-MEL-28 = test system: SK-MEL-28
LOX IMVI = test system: LOX IMVI
MDA-N = test system: MDA-N
SW-620 = test system: SW-620
SF-268 = test system: SF-268
KM12 = test system: KM12
SN12C = test system: SN12C
CCRF-CEM = test system: CCRF-CEM
HCT-116 = test system: HCT-116
K562 = test system: K562
HCC 2998 = test system: HCC 2998
NCI-H460 = test system: NCI-H460
786-0 = test system: 786-0
MOLT-4 = test system: MOLT-4
RXF 393 = test system: RXF 393
M14 = test system: M14
SNB-19 = test system: SNB-19
SF-295 = test system: SF-295
NCI-H23 = test system: NCI-H23
OVCAR-3 = test system: OVCAR-3
HCT-15 = test system: HCT-15
OVCAR-8 = test system: OVCAR-8
NCI-H226 = test system: NCI-H226
IGROV-1 = test system: IGROV-1
HT-29 = test system: HT-29
UO-31 = test system: UO-31
HL-60 = test system: HL-60
PC-3 = test system: PC-3
SK-MEL-2 = test system: SK-MEL-2
Malme-3M = test system: Malme-3M
A498 = test system: A498
NCI/ADR-RES = test system: NCI/ADR-RES
U-251 = test system: U-251
MCF7 = test system: MCF7
TK-10 = test system: TK-10
OVCAR-5 = test system: OVCAR-5
UACC-257 = test system: UACC-257
SR = test system: SR
CAKI-1 = test system: CAKI-1
BT-549 = test system: BT-549
COLO 205 = test system: COLO 205
MDA-MB-231 = test system: MDA-MB-231
SF-539 = test system: SF-539
SK-OV-3 = test system: SK-OV-3
EKVX = test system: EKVX
A549 = test system: A549
NCI-H522 = test system: NCI-H522
SNB-75 = test system: SNB-75
MDA-MB-435 = test system: MDA-MB-435
RPMI-8226 = test system: RPMI-8226
Hs-578T = test system: Hs-578T
ACHN = test system: ACHN
OVCAR-4 = test system: OVCAR-4
HOP-62 = test system: HOP-62
HOP-92 = test system: HOP-92

CCNc1nc2ccccc2nc1NCC
GI50 (SK-MEL-5): > 100 µM (inactive) | GI50 (UACC-62): > 100 µM (inactive) | GI50 (DU-145): > 100 µM (inactive) | GI50 (SK-MEL-28): > 100 µM (inactive) | GI50 (LOX IMVI): > 100 µM (inactive) | GI50 (MDA-N): > 100 µM (inactive) | GI50 (SW-620): > 100 µM (inactive) | GI50 (SF-268): > 100 µM (inactive) | GI50 (KM12): > 100 µM (inactive) | GI50 (SN12C): > 100 µM (inactive) | GI50 (CCRF-CEM): > 100 µM (inactive) | GI50 (HCT-116): > 100 µM (inactive) | GI50 (K562): > 100 µM (inactive) | GI50 (HCC 2998): > 100 µM (inactive) | GI50 (NCI-H460): > 100 µM (inactive) | GI50 (786-0): > 100 µM (inactive) | GI50 (MOLT-4): > 100 µM (inactive) | GI50 (RXF 393): > 100 µM (inactive) | GI50 (M14): > 100 µM (inactive) | GI50 (SNB-19): > 100 µM (inactive) | GI50 (SF-295): > 100 µM (inactive) | GI50 (NCI-H23): > 100 µM (inactive) | GI50 (OVCAR-3): > 100 µM (inactive) | GI50 (HCT-15): > 100 µM | GI50 (OVCAR-8): > 100 µM (inactive) | GI50 (NCI-H226): > 100 µM (inactive) | GI50 (IGROV-1): > 100 µM (inactive) | GI50 (HT-29): > 100 µM (inactive) | GI50 (UO-31): > 100 µM (inactive) | GI50 (HL-60): > 100 µM (inactive) | GI50 (PC-3): > 100 µM (inactive) | GI50 (SK-MEL-2): > 100 µM (inactive) | GI50 (Malme-3M): > 100 µM (inactive) | GI50 (A498): > 100 µM (inactive) | GI50 (NCI/ADR-RES): > 100 µM (inactive) | GI50 (U-251): > 100 µM (inactive) | GI50 (MCF7): > 100 µM (inactive) | GI50 (TK-10): > 100 µM (inactive) | GI50 (OVCAR-5): > 100 µM (inactive) | GI50 (UACC-257): > 100 µM (inactive) | GI50 (SR): > 100 µM (inactive) | GI50 (CAKI-1): > 100 µM (inactive) | GI50 (BT-549): > 100 µM (inactive) | GI50 (COLO 205): > 100 µM (inactive) | GI50 (MDA-MB-231): > 100 µM (inactive) | GI50 (SF-539): > 100 µM (inactive) | GI50 (SK-OV-3): > 100 µM (inactive) | GI50 (EKVX): > 100 µM (inactive) | GI50 (A549): > 100 µM (inactive) | GI50 (NCI-H522): > 100 µM (inactive) | GI50 (SNB-75): > 100 µM (inactive) | GI50 (MDA-MB-435): > 100 µM (inactive) | GI50 (RPMI-8226): > 100 µM (inactive) | GI50 (Hs-578T): > 100 µM (inactive) | GI50 (ACHN): > 100 µM (inactive)

Clc1cc(Br)c2c3c(c(Br)cc(Cl)c13)C(Br)=C2Br
GI50 (UACC-62): 23.2 µM (inactive) | GI50 (DU-145): 28.4 µM (inactive) | GI50 (SK-MEL-28): > 100 µM (inactive) | GI50 (LOX IMVI): 16.9 µM (inactive) | GI50 (MDA-N): 42.3 µM (inactive) | GI50 (SW-620): 34.2 µM (inactive) | GI50 (SF-268): 22.5 µM (inactive) | GI50 (KM12): 45.8 µM (inactive) | GI50 (SN12C): 19.5 µM (inactive) | GI50 (HCT-116): 21.2 µM (inactive) | GI50 (K562): 29 µM (inactive) | GI50 (HCC 2998): 18.3 µM (inactive) | GI50 (NCI-H460): 40.7 µM (inactive) | GI50 (786-0): 22.1 µM (inactive) | GI50 (MOLT-4): 19.8 µM (inactive) | GI50 (M14): 28.2 µM (inactive) | GI50 (SNB-19): > 100 µM (inactive) | GI50 (SF-295): > 100 µM (inactive) | GI50 (OVCAR-3): 30.3 µM (inactive) | GI50 (HCT-15): 18.6 µM | GI50 (OVCAR-8): 31 µM (inactive) | GI50 (NCI-H226): 39.4 µM (inactive) | GI50 (IGROV-1): 16.7 µM (inactive) | GI50 (HT-29): 25.2 µM (inactive) | GI50 (UO-31): 44.6 µM (inactive) | GI50 (HL-60): 19.1 µM (inactive) | GI50 (PC-3): 26.7 µM (inactive) | GI50 (SK-MEL-2): 29.9 µM (inactive) | GI50 (Malme-3M): 27.6 µM (inactive) | GI50 (A498): > 100 µM (inactive) | GI50 (NCI/ADR-RES): 22.8 µM (inactive) | GI50 (U-251): 43.8 µM (inactive) | GI50 (OVCAR-4): 44.9 µM (inactive) | GI50 (MCF7): 34.8 µM (inactive) | GI50 (TK-10): 21.8 µM (inactive) | GI50 (OVCAR-5): 44.2 µM (inactive) | GI50 (UACC-257): > 100 µM (inactive) | GI50 (SR): 27.9 µM (inactive) | GI50 (BT-549): 38.7 µM (inactive) | GI50 (MDA-MB-231): 28.1 µM (inactive) | GI50 (SF-539): 19 µM (inactive) | GI50 (SK-OV-3): > 100 µM (inactive) | GI50 (EKVX): 28.6 µM (inactive) | GI50 (HOP-62): 64.3 µM (inactive) | GI50 (A549): 55.8 µM (inactive) | GI50 (NCI-H522): 17.2 µM (inactive) | GI50 (SNB-75): 13.8 µM (inactive) | GI50 (MDA-MB-435): 39.4 µM (inactive) | GI50 (RPMI-8226): 21.6 µM (inactive) | GI50 (Hs-578T): 33.1 µM (inactive) | GI50 (ACHN): 19.7 µM (inactive)

COc1c(C)c(C/C=C(\C)CC/C=C(\C)CC/C=C(\C)CCC=C(C)C)c(OC)c(OC)c1OC
GI50 (SK-MEL-5): > 100 µM (inactive) | GI50 (UACC-62): > 100 µM (inactive) | GI50 (DU-145): > 100 µM (inactive) | GI50 (LOX IMVI): > 100 µM (inactive) | GI50 (MDA-N): > 100 µM (inactive) | GI50 (SW-620): > 100 µM (inactive) | GI50 (SF-268): > 100 µM (inactive) | GI50 (KM12): > 100 µM (inactive) | GI50 (SN12C): > 100 µM (inactive) | GI50 (CCRF-CEM): > 100 µM (inactive) | GI50 (HCT-116): > 100 µM (inactive) | GI50 (K562): > 100 µM (inactive) | GI50 (HCC 2998): > 100 µM (inactive) | GI50 (NCI-H460): > 100 µM (inactive) | GI50 (786-0): > 100 µM (inactive) | GI50 (MOLT-4): > 100 µM (inactive) | GI50 (RXF 393): > 100 µM (inactive) | GI50 (M14): > 100 µM (inactive) | GI50 (SNB-19): > 100 µM (inactive) | GI50 (SF-295): > 100 µM (inactive) | GI50 (NCI-H23): > 100 µM (inactive) | GI50 (OVCAR-3): > 100 µM (inactive) | GI50 (HCT-15): > 100 µM | GI50 (OVCAR-8): > 100 µM (inactive) | GI50 (IGROV-1): > 100 µM (inactive) | GI50 (HT-29): > 100 µM (inactive) | GI50 (UO-31): > 100 µM (inactive) | GI50 (PC-3): > 100 µM (inactive) | GI50 (SK-MEL-2): > 100 µM (inactive) | GI50 (NCI/ADR-RES): > 100 µM (inactive) | GI50 (U-251): > 100 µM (inactive) | GI50 (OVCAR-4): > 100 µM (inactive) | GI50 (MCF7): > 100 µM (inactive) | GI50 (TK-10): > 100 µM (inactive) | GI50 (OVCAR-5): > 100 µM (inactive) | GI50 (UACC-257): > 100 µM (inactive) | GI50 (SR): > 100 µM (inactive) | GI50 (CAKI-1): > 100 µM (inactive) | GI50 (BT-549): > 100 µM (inactive) | GI50 (COLO 205): > 100 µM (inactive) | GI50 (MDA-MB-231): > 100 µM (inactive) | GI50 (SF-539): > 100 µM (inactive) | GI50 (SK-OV-3): > 100 µM (inactive) | GI50 (EKVX): > 100 µM (inactive) | GI50 (HOP-62): > 100 µM (inactive) | GI50 (HOP-92): > 100 µM (inactive) | GI50 (A549): > 100 µM (inactive) | GI50 (NCI-H522): > 100 µM (inactive) | GI50 (SNB-75): > 100 µM (inactive) | GI50 (MDA-MB-435): > 100 µM (inactive) | GI50 (Hs-578T): > 100 µM (inactive) | GI50 (ACHN): > 100 µM (inactive)
